# Results published in ChEMBL document CHEMBL5725668, “Cyclobutane containing carboxylic acid GPR120 modulators” (2018).
# Assay: GPR120 pERK AlphaScreen SureFire Assay: The human and mouse GPR120-mediated intracellular phosphorylated ERK assays were established using CHOA12 cells stably transfected with the short form of human or mouse GPR120 receptor. Cells were cultured in growth medium consisting of F-12 media (Invitrogen Cat. #11765) with 5% Charcoal/Dextran FBS (Invitrogen Cat. #12676-029), 500 μg/mL GENETICIN® (Life Technologies Cat. #10131-027) and 250 μg/mL Zeocin (Invitrogen Cat. #R250-01). Cells were cryo preserved at a concentration of 2×10^7 cells/mL, in 90% Charcoal/Dextran FBS and 10% DMSO, and frozen in liquid nitrogen at a low passage number.For the pERK assay, 2×10^7 cells/mL cryopreserved human and mouse cells were thawed rapidly in a 37° C. water bath and added to a T-225 flask containing 50 mL growth medium. The flasks were placed in a tissue culture incubator overnight (37° C., 5% CO2). The next day, cells were harvested with trypsin (Gibco Cat. #25300-054), resuspended in serum-containing growth medium and counted using a Cellometer and volume adjusted to a concentration of 0.6×10^6 cells/mL. Cells were plated into 384-well clear bottom tissue culture plates (BD Cat. #353962) at 50 μL/well, for a density of 30,000 cells/well using a MULTIDROP® and incubated for 16-18 hours (overnight) at 37° C. with 5% CO2. The next day, cells were serum starved in 30 μL of F-12 media without any serum or antibiotics for 2 hours at 37° C.Test compounds were 3-fold, 11-point serially diluted in DMSO in a REMP assay plate (Matrix Cat. #4307) by Tecan and 5 μL was transferred into an ECHO source plate (Labcyte Cat. #LC-0200). Cells were then stimulated with 50 nL of compound dilutions using ECHO liquid handler for 7 minutes at 37° C. Compounds ranged from final assay concentrations of 33.33 μM to 0.56 nM.The media was then dumped and cells lysed with 20 μL of 1× Lysis buffer from the AlphaScreen SureFire Phospho-ERK 1/2 Kit (Perkin Elmer Cat. #6760617M). The lysis buffer was diluted 5-fold with water before use. The plate was agitated on a shaker for 10 minutes after which 2 μL was transferred into a 384-well white proxiplate (Perkin Elmer Cat. #6008289). The SureFire assay reagent mix was prepared by mixing 60 parts Reaction Buffer, 10 parts Activation Buffer, 1 part Donor Beads, 1 part Acceptor Beads (Perkin Elmer Cat. #TGRES10K). 3.5 μL/well of this reagent mix was manually added to the proxiplate with a multichannel pipettor. Plates were spun down at 1000 rpm for 2 minutes, followed by light-protected incubation at room temperature for 2 hours. The plates were read on the Alpha-technology compatible Envision multilabel plate reader using AlphaScreen protocol according to manufacturer's specifications. […]
# Format: cell-based
row,Compound,EC50 [µM]
1,Cc1nc(C)c(-c2ccc([C@H]3C[C@@H](OCC(=O)O)C3)cc2)s1,3.46
2,O=C(O)CO[C@H]1C[C@@H](c2ccc(-c3ccccc3Oc3ccccc3)cc2)C1,1.46
3,CC(C)Oc1cc(-c2ccc([C@H]3C[C@@H](OCC(=O)O)C3)cc2)c(F)cn1,2.07
4,O=C(O)CO[C@H]1C[C@@H](c2ccc(-c3cc(Oc4ccc(F)cc4)cc(F)c3F)cc2)C1,0.59
